Patent US20230303599A1, “PRODRUGS OF PHOSPHONAMIDE NUCLEOTIDE ANALOGUES AND THEIR PHARMACEUTICAL USE” (priority 2020, published 2023)
In brackets after ≈: the same amount, converted by molar mass.

Tests used:
[1] = Cytotoxicity assay in MT-4 cells; assay type: cell-based; conditions: human, uninfected MT-4 cells, average of at least two independent experiments, read-out: MT4 CC50
Procedure: Compounds were tested in a high-throughput 384-well assay format for their ability to inhibit the replication of HIV-1 (IIIB) in MT-4 cells. Compounds were serially diluted (1:3) in DMSO on 384-well polypropylene plates and further diluted 200-fold into complete RPMI media (10% FBS, 1% P/S) using the Biotek Micro Flow and Labcyte ECHO acoustic dispenser. Each plate contained up to 8 test compounds, with negative (no drug) and positive (5 μM AZT) controls. MT-4 cells were pre-treated with 10 μL of either RPMI (mock-infected) or a fresh 1:250 dilution of HIV-1 IIIB concentrated virus stock. Infected and uninfected MT-4 cells were further diluted in complete RPMI media and added to each plate using a Micro Flow dispenser. After 5 days incubation in a humidified and temperature-controlled incubator (37° C.), Cell Titer Glo (Promega) was added to the assay plates and chemiluminescence read using an Envision plate-reader. EC50 values were defined as the compound concentration that causes a 50% decrease in luminescence signal and were calculated using a sigmoidal dose-response model to generate curve fits and are shown in Table 1.
Example 105: Cytotoxicity Assay in MT-4 Cells
Assays were performed as described in Example 104 except uninfected MT-4 cells were added to each well containing test compound. In addition, 10 μM puromycin was added to the last column of each assay plate to assess a base level of cytotoxicity.

[2] = Cytotoxicity assay in primary human hepatocytes (PHHs); assay type: cell-based; conditions: HBV-infected primary human hepatocytes, HBV-infected PHH, Cell Titer Glo, average of at least two independent experiments
Procedure: Example 107: Cytotoxicity Assay in Primary Human Hepatocytes (PHHs)
The HBV-infected primary human hepatocytes are seeded (20K cells/well in 80 uL of Media) in 384well collagen coated plates pre-spotted with compounds. After 5 days, 40 ul of cell supernatant is removed to quantify HBV DNA levels as described in Example 106. Then, 40 ul Cell Titer Glo Reagent (Promega Catalog Number: G7572) is added to the remaining cells and luminescence is measured on the EnVision microplate reader.

[3] = Kinetic solubility analysis; assay type: physicochemical; conditions: 1× PBS, 24.2 °C, aqueous buffer, kinetic from dmso stock; pH 7.4 PBS, 1% DMSO, 24-hour incubation at ambient temperature
Procedure: Example 108: Kinetic Solubility Analysis
Buffer Preparation: 0.1 N HCl: Hydrochloric acid, 0.1 N standardized solution (MP Biomedicals part number 199569). 1×PBS, pH 7.4: Phosphate Buffered Saline (PBS) solution 10× (Fisher Bioreagent part number BP399-500) 50 mL was added to approximately 450 mL HPLC grade H2O. The volume of the solution was then adjusted to 500 mL for a total dilution factor of 1:10 and a final PBS concentration of 1×.
The final DMSO concentration was 1.0% (v/v) and maximum theoretical compound concentration is 100 μM (for compound stock concentration of 10 mM). The filter plate was sealed. Following 24-hour incubation at ambient temperature (24.2-27.5° C.), the samples were vacuum filtered and the filtrates were collected in a 96 well polypropylene plate for analysis. The collection plate was sealed for analysis. Filtrates were injected into the Antek 8060 chemiluminescent nitrogen detector for quantification. The results are reported in μM.
The filtrates were quantified with respect to this calibration curve. Each calculated solubility value was corrected for background nitrogen present in the DMSO and in the medium used to prepare the sample. All reported values for compounds containing adjacent nitrogen atoms in a ring structure were increased by approximately 25%.

Structure (SMILES) | solubility kinetic at 24 h [3] | CC50 at 5 days [1] | CC50 at 5 days [2]
C[C@H](Cn1cnc2c(N)ncnc21)OCP(=O)(NC(C)(C)C(=O)OCc1ccccc1)NC(C)(C)C(=O)OCc1ccccc1 [Example 3, Dibenzyl 2,2′-(((((1-(6-amino-9H-purin-9-yl)propan-2-yl)oxy)methyl)phosphoryl)bis(azanediyl))(R)-bis(2-methylpropanoate)] | 0.05 mg/mL (≈ 78.4 µM) | 4.46 µM | > 0.1 µM
CCCCCOC(=O)C(C)(C)NP(=O)(CO[C@H](C)Cn1cnc2c(N)ncnc21)NC(C)(C)C(=O)OCCCCC [Example 4, Dipentyl 2,2′-(((((1-(6-amino-9H-purin-9-yl)propan-2-yl)oxy)methyl)phosphoryl)bis(azanediyl))(R)-bis(2-methylpropanoate)] | 0.053 mg/mL (≈ 88.7 µM) | 8.42 µM | > 0.1 µM
CCC[C@H]1CC[C@H](OC(=O)C(C)(C)NP(=O)(CO[C@H](C)Cn2cnc3c(N)ncnc32)NC(C)(C)C(=O)O[C@H]2CC[C@H](CCC)CC2)CC1 [Example 27] | 0.001 mg/mL (≈ 1.42 µM) | – | > 0.1 µM
CCCCCCCCCCCC(=O)Nc1ncnc2c1ncn2C[C@@H](C)OCP(=O)(NC(C)(C)C(=O)OCCCCCC)NC(C)(C)C(=O)OCCCCCC [Example 30, Dihexyl 2,2′-(((((1-(6-dodecanamido-9H-purin-9-yl)propan-2-yl)oxy)methyl)phosphoryl)bis(azanediyl))(R)-bis(2-methylpropanoate)] | < 0.001 mg/mL | – | > 0.1 µM
CCCCCCOC(=O)C(CC)(CC)NP(=O)(CO[C@H](C)Cn1cnc2c(N)ncnc21)NC(CC)(CC)C(=O)OCCCCCC [Example 65, Dihexyl 2,2′-(((((1-(6-amino-9H-purin-9-yl)propan-2-yl)oxy)methyl)phosphoryl)bis(azanediyl))(R)-bis(2-ethylbutanoate)] | – | 6.71 µM | > 0.1 µM
CCCCCCCOC(=O)C(C)(C)NP(=O)(CO[C@H](C)Cn1cnc2c(N)ncnc21)NC(C)(C)C(=O)OCCCCCCC [Example 66, Diheptyl 2,2′-(((((1-(6-amino-9H-purin-9-yl)propan-2-yl)oxy)methyl)phosphoryl)bis(azanediyl))(R)-bis(2-methylpropanoate)] | – | 4.77 µM | > 0.1 µM

Further lines, with some results ahead:

solubility kinetic at 24 h [3] | Structure (SMILES) | CC50 at 5 days [1] | CC50 at 5 days [2]
0.007 mg/mL (≈ 7.94 µM) | CCCCCCOC(=O)C(C)(C)NP(=O)(CO[C@H](C)Cn1cnc2c(NC(=O)OCC(C)(C)C(=O)OCc3oc(=O)oc3C)ncnc21)NC(C)(C)C(=O)OCCCCCC [Example 98, Dihexyl 2,2′-(((((1-(6-(((2,2-dimethyl-3-((5-methyl-2-oxo-1,3-dioxol-4-yl)methoxy)-3-oxopropoxy)carbonyl)amino)-9H-purin-9-yl)propan-2-yl)oxy)methyl)phosphoryl)bis(azanediyl))(R)-bis(2-methylpropanoate)] | 24.5 µM | –
0.025 mg/mL (≈ 29.3 µM) | CCCCCCOC(=O)C(C)(C)NP(=O)(CO[C@H](C)Cn1cnc2c(NC(=O)CCCC(=O)OCc3oc(=O)oc3C)ncnc21)NC(C)(C)C(=O)OCCCCCC [Example 99, (5-Methyl-2-oxo-1,3-dioxol-4-yl)methyl 5-[[9-[(2R)-2-[bis[(2-hexoxy-1,1-dimethyl-2-oxo-ethyl)amino]phosphorylmethoxy]propyl]purin-6-yl]amino]-5-oxo-pentanoate] | 17.2 µM | –
0.023 mg/mL (≈ 26.1 µM) | CCCCCCOC(=O)C(C)(C)NP(=O)(CO[C@H](C)Cn1cnc2c(NC(=O)OC(C)(C)CC(=O)OCc3oc(=O)oc3C)ncnc21)NC(C)(C)C(=O)OCCCCCC [Example 101, Dihexyl 2,2′-(((((1-(6-((((2-methyl-4-((5-methyl-2-oxo-1,3-dioxol-4-yl)methoxy)-4-oxobutan-2-yl)oxy)carbonyl)amino)-9H-purin-9-yl)propan-2-yl)oxy)methyl)phosphoryl)bis(azanediyl))(R)-bis(2-methylpropanoate)] | 7.68 µM | –
